Experimental data published in patent EP4119135A1, “METHODS FOR REBALANCING THE INTESTINAL FLORA IN PATIENTS SUFFERING FROM PARKINSON'S DISEASE” (Luxia Scientific, priority 2021, dated 2023).
Several values for one entry are separate records, joined by “and”; a condition that tells them apart may be missing. Identical values can stand only once. Entries after “also recorded” stand apart in the source; their conditions may differ.

Tests used:
Clostridium_XVIII = assay: Spearman correlation between estimated daily nutrient intake (food questionnaire) and relative abundance of the bacterial genus (16S sequencing of faecal samples); conditions: nutrient intake vs relative abundance of Clostridium_XVIII, whole cohort (215 individus)
Text: (§1) Les tests statistiques suivants ont été réalisés : • Corrélations non paramétriques de Spearman entre les apports en nutriments calculés et chacune des cinq bactéries d'intérêt. • Corrélations non paramétriques de Spearman entre les fréquences de consommation des aliments du questionnaire alimentaire et chacune des cinq bactéries d'intérêt. • Régressions ordinales entre les fréquences de consommation des aliments du questionnaire alimentaire et chacune des cinq bactéries d'intérêt.
(§2) Après avoir créé leur compte personnel sur le site internet de la société de Luxia Scientific, les clients peuvent remplir de manière volontaire un questionnaire alimentaire. Ce questionnaire possède neuf sous-groupes de questions, chacun constituant une catégorie d'aliments. À l'intérieur de ces sous-groupes, une liste complète d'aliments est fournie et donne aux personnes la possibilité de choisir la fréquence à laquelle elles ont consommé chaque aliment possible au cours du dernier mois dans une portion spécifiée.
(§3) Un tableau des apports nutritionnels par portion d'aliments présents dans le questionnaire a été ensuite créé. Pour créer ce tableau, la Table de composition alimentaire française Ciqual de l'ANSES du 07/07/2020 (https://ciqual.anses.fr/) a été utilisée.
(§4) L'apport en omégas-3 a été calculé en additionnant les valeurs d'apports en acide alpha-linolénique (18:3; ALA), en acide eïcosapentaénoïque (20:5; EPA) et en acide docosahexaénoïque (22:6; DHA). L'apport en omégas-6 a été calculé en additionnant les valeurs d'apports en acide linoléique (18:2; […]) et en acide arachidonique (20:4; ARA) qui sont les deux présents dans la Table Ciqual.
(§5) À cette étape, on possède d'une part les réponses des utilisateurs volontaires pour répondre au questionnaire alimentaire, et, d'autre part, on possède les apports nutritionnels mensuel pour chaque réponse possible de chaque aliment du questionnaire. Il convient ensuite de calculer la somme de tous les apports pour chaque réponse de l'individu au questionnaire, puis de la diviser par 30 pour obtenir l'apport nutritionnel quotidien moyen estimé pour cet individu.
(§6) On obtient ainsi un document décrivant les apports nutritionnels de 70 nutriments chez 288 individus.
(§7) Ces deux fichiers sont ainsi composés au final des données alimentaires de 288 individus. Au début de l'analyse, ont été supprimées les données de 2 individus qui sont des enfants de moins de 4 ans car à cet âge, leur microbiote est encore trop immature pour être représentatif des effets de l'alimentation sur leurs populations bactériennes. On utilise donc les données alimentaires de 286 individus pour les analyses de ce rapport.
(§8) Les résultats ayant servi à l'analyse du microbiote intestinal ont été générés en suivant le processus d'analyse du Dispositif Médical de Diagnostic In Vitro 1test1. En bref, les échantillons fécaux ont été prélevés avec un tube de collecte contenant un conservant afin de permettre le transport à température non controlée depuis l'utilisateur vers le laboratoire d'analyse (DNA/RNA Shield de Zymo Research). L'ADN a ensuite été extrait et le séquençage de la région v3-v4 ARN16s réalisé par le laboratoire IBBL au Luxembourg sur un séquenceur MiSeq d'Illumina selon le protocol en application (peut-être rajouter une référence publication). […]

Faecalibacterium = assay: as above; conditions: nutrient intake vs relative abundance of Faecalibacterium, whole cohort (215 individus)
Text: as §1, §2, §3, §4, §5, §6, §7, §8

Blautia = assay: as above; conditions: nutrient intake vs relative abundance of Blautia, whole cohort (215 individus)
Text: as §1, §2, §3, §4, §5, §6, §7, §8

microbiote intestinal = assay: Short-term colonic incubations (in vitro faecal fermentation, simplified SHIME) with faecal inocula of Parkinson and healthy donors; assay type: cell-based, humain; conditions: for pH (activité de fermentation): 0-48h
Text: Pour valider l'effet bénéfique des 5 nutriments d'intérêt sur le microbiote intestinal, une étude In Vitro a été réalisée sur des microbiotes reconstitués à partir de selles d'individus sains et de patients souffrant de la maladie de Parkinson. En particulier, l'effet bénéfique de l'apport de ces nutriments a été évalué à travers l'augmentation de la production de butyrate et d'acides gras à chaine courte en général, ainsi que les changements observés au niveau des métabolites.
Trois donneurs sains et deux donneurs atteints de la maladie de Parkinson ont été recrutés. Pour évaluer les effets de chacun des nutriments sur le microbiote intestinal des donneurs susmentionnés, des simulations coliques à court terme ont été effectuées. L'évaluation de chaque nutriment a été basée 1) sur les effets sur la fermentation microbienne globale (pH) et 2) sur l'activité métabolique microbienne (production de AGCC, de lactate et d'un panel d'environ 400 métabolites).
Les approches in vitro pour étudier le tractus gastro-intestinal et les processus microbiens intestinaux offrent une excellente configuration expérimentale pour étudier les processus qui se développent dans le microbiome intestinal humain. Le dépistage des effets de composés sélectionnés sur le microbiote intestinal peut être effectué au moyen d'une fermentation fécale réalisée dans un seul réacteur, ce qui permet d'évaluer la capacité de substrats spécifiques à moduler la composition et l'activité microbiennes intestinales. Ces expériences représentent une simulation simplifiée du Simulateur continu de l'écosystème microbien intestinal humain (SHIME®).
Les matières fécales ont été recueillies auprès de cinq donneurs (deux donneurs atteints de la maladie de Parkinson (PD) et trois donneurs sains (HD)).
Les matières fécales ont été recueillies dans des conteneurs anaérobies et conservées à la température du réfrigérateur jusqu'à un traitement ultérieur. Dans les 48 heures suivant la défécation, des suspensions fécales (15 % (p/v)) ont été préparées dans un tampon phosphate et mélangées dans un rapport 1 : 1 avec un cryoprotecteur optimisé en interne dans une chambre anaérobie. Les suspensions obtenues ont été immédiatement surgelées dans de l'azote liquide puis conservées à -80°C (cryostock). Juste avant l'expérience, les échantillons ont été décongelés et immédiatement ajoutés aux réacteurs, de sorte qu'un seul cycle de congélation-décongélation a été appliqué sur chaque inoculum individuel.
Un test de dépistage à court terme consiste généralement en une incubation colique d'une dose unique d'un composé d'essai dans des conditions représentatives du gros intestin proximal, en utilisant des inoculums bactériens provenant de donneurs sélectionnés comme sources microbiennes. Cinq traitements et une condition de référence (contrôle négatif) ont été testés par donneur. La composition du milieu dans le contrôle et les traitements est exactement la même, mais le contrôle ne contient pas l'ingrédient de test. Le contrôle est inclus pour déterminer les changements de base dans les différents paramètres étudiés (pH, production d'AGCC, lactate et métabolites liés à l'intestin) résultant de la fermentation des nutriments dans le milieu nutritionnel appauvri en glucides qui est introduit avec les ingrédients d'essai dans les réacteurs (voir ci-dessous), pour fournir des nutriments essentiels à la population microbienne. Chaque condition a été testée en une seule répétition chez cinq donneurs.
Un milieu nutritionnel appauvri en glucides (contenant les nutriments basaux du côlon) a été ajouté à chaque réacteur (y compris le contrôle), ainsi que 10 % (v/v) d'un inoculum fécal cryoconservé à 7,5 % (qui a servi de source microbienne) de chaque des cinq donneurs, portant le volume total dans les réacteurs à 70 mL. Des billes porteuses de mucine ont été incluses dans chaque réacteur, pour simuler la couche de mucus du côlon. […]

[1] = healthy individuals, vs control
[2] = two Parkinson patients, vs control

Structure (SMILES): CC1=C(/C=C/C(C)=C/C=C/C(C)=C/C=C/C=C(C)/C=C/C=C(C)/C=C/C2=C(C)CCCC2(C)C)C(C)(C)CCC1 [Beta-Carotène, bêta-carotène]
- corrélation (Clostridium_XVIII): 0,11
- corrélation (Faecalibacterium): 0,12
- corrélation (Blautia): 0,14
- corrélation (Blautia; listed as bêta-carotène): corrélation positive significative au seuil de 5%

Structure (SMILES): CCC=CCC=CCC=CCC=CCC=CCC=CCCC(=O)O [DHA, acide docosahexaénoïque]
- corrélation (Clostridium_XVIII): 0,11 and 0,10

Structure (SMILES): CCCC(=O)O [butyrate de sodium]
- production de butyrate (microbiote intestinal; Parkinson patients, vs control, added 10 mM butyrate taken into account): a fortement stimulé la production de butyrate; also recorded: a stimulé la production de butyrate dans la population parkinsonienne
- production d'acétate (microbiote intestinal; [1]): concentrations d'acétate similaires à celles du contrôle
- production de propionate (microbiote intestinal; [1]): concentrations de propionate similaires à celles du contrôle
- production de butyrate (microbiote intestinal; healthy individuals, vs control (blank)): n'a pas stimulé la production de butyrate; also recorded: pas dans la population en bonne santé
- pH (activité de fermentation) (microbiote intestinal; [1]): baisses de pH les plus légères
- production d'acétate (microbiote intestinal; [2]): concentrations d'acétate similaires à celles du contrôle
- production de propionate (microbiote intestinal; [2]): légers effets de stimulation
- pH (activité de fermentation) (microbiote intestinal; [2]): profils de pH similaires à ceux du contrôle
